From patent US20240408080A1, “PHARMACEUTICAL COMPOSITIONS OF CGRP INHIBITORS AND METHODS OF THEIR USE” (Pfizer Ireland Pharmaceuticals, priority 2021, published 2024)

Experiments:
[1] = Phase 1 multiple ascending dose (MAD) study, intranasal, pharmacokinetics; format: in vivo, human; conditions: for AUC: human
Procedure: A Phase 1, single-center, randomized, double-blind, placebo-controlled, sequential multiple ascending dose (MAD) study with 2 alternate dosing arms was conducted. […] The MAD portion of the study consists of 4 cohorts, with a maximum dose of 20 mg administered once daily for up to 14 days in 3 cohorts, and 20 mg administered twice daily for up to 8 days in the fourth cohort.
In addition to the 4 MAD cohorts, there were 2 alternate dosing cohorts, each consisting of 1 day dosing. The first alternate dosing cohort assessed the effect of 2 sequential administrations of 20 mg (20 mg spray [100 μL of 200 mg/mL] in alternate nostrils); with a 30 minute interval between administrations. A 2nd alternate dosing cohort assessed the effect of 2 sequential administrations of 20 mg (20 mg spray [100 μL of 200 mg/mL] in alternate nostrils); with a nose blow and 5 minute interval between administrations.
The PK data were collected from subjects in Cohorts 1 to 4.

[2] = system: acute treatment of migraine; assay: Phase 2/3 clinical trial BHV3500-201 (Study 201), efficacy of intranasal zavegepant versus placebo; format: in vivo, human; conditions: for (2) Return to normal function at 2 hours posidose, Stratified Percentage Difference (Zavegepant − Placebo) / (7) Return to normal function at 60 minutes postdose, Stratified Percentage Difference (Zavegepant − Placebo) / (9) Return to normal function at 30 minutes postdose, Stratified Percentage Difference (Zavegepant − Placebo): subjects with functional disability at onset; for (9) Return to normal function at 30 minutes postdose, n/N (%): mITT subjects with functional disability at on-study migraine attack onset
[3] = pKa (physical and chemical properties of drug substance); format: physicochemical
[4] = pH-solubility profile (physical and chemical properties of drug substance); format: physicochemical; conditions: mono-hydrochloride salt
[5] = Phase 2/3 clinical trial BHV3500-201 (Study 201), safety, adverse events and liver function tests; format: in vivo, human
[6] = Zavegepant 5 mg Group vs placebo, CMH weighting, mITT subjects
[7] = Zavegepant 5 mg Group vs placebo, CMH weighting
[8] = Zavegepant 5 mg Group, intranasal single dose, mITT subjects
[9] = Zavegepant 10 mg Group vs placebo, CMH weighting, mITT subjects
[10] = Zavegepant 10 mg Group vs placebo, CMH weighting
[11] = Zavegepant 10 mg Group, intranasal single dose, mITT subjects
[12] = Zavegepant 20 mg Group vs placebo, CMH weighting, mITT subjects
[13] = Zavegepant 20 mg Group vs placebo, CMH weighting
[14] = Zavegepant 20 mg Group vs placebo, CMH weighting, subjects with symptom present at onset

In the case of `Cc1cc(C[C@@H](NC(=O)N2CCC(c3cc4ccccc4[nH]c3=O)CC2)C(=O)N2CCN(C3CCN(C)CC3)CC2)cc2cn[nH]c12` [Zavegepant, (R)-N-(3-(7-methyl-1H-indazol-5-yl)-1-(4-(1-methylpiperidin-4-yl)piperazin-1-yl)-1-oxopropan-2-yl)-4-(2-oxo-1,2-dihydroquinolin-3-yl)piperidine-1-carboxamide], the “Plasma Concentrations (Mean)” value ([1]; 5 mg, Day 14, 0.500 h) is reported as 8.08 ng/mL, the AUC ([1]; in vivo, 5 mg) is reported as 19 ng·h/mL and the AUC ([1]; in vivo, 10 mg) is reported as 30.9 ng·h/mL. For the same compound, the AUC ([1]; in vivo, 20 mg) was 87.9 ng·h/mL, the urine concentrations ([1]; in vivo) was “below the limit of quantitation” and the “Freedom from MBS (Most Bothersome Symptom), 2 Hour Endpoint” value ([2]; 5 mg single dose) was 39.0%. For the same compound, the “Pain Relief at 15 Minutes Post-Dose, n/N (value in brackets)” value ([2]; 15 mg (so in the source), Prophylactic migraine medication use: Yes) was 13/50 (24.0), the “return to normal function” value ([2]; 20 mg) was “return to normal function as early as 30 minutes” and the “onset of pain relief” value ([2]; 5, 10, and 20 mg single dose, stratified CMH tests, mITT) was “pain relief as early as 15 minutes post-dose”. For the same compound, the “co-primary endpoints of pain freedom and freedom from MBS at 2 hours versus placebo” value ([2]; 10 and 20 mg single dose) was “statistically superior (p<0.05) to placebo”, the “(1) Pain relief at 2 hours postdose, Stratified Percentage Difference (Zavegepant − Placebo)” value [2, 6] was 4.2% and the “(3) Rescue medication use within 24 hours postdose, Stratified Percentage Difference (Zavegepant − Placebo)” value [2, 6] was −2.4%. The “(4) Photophobia freedom at 2 hours postdose, Stratified Percentage Difference (Zavegepant − Placebo)” value [2, 6] was 4.6%, the “(6) Pain relief at 60 minutes postdose, Stratified Percentage Difference (Zavegepant − Placebo)” value [2, 6] was 5.1% and the “(8) Pain relief at 30 minutes postdose, Stratified Percentage Difference (Zavegepant − Placebo)” value [2, 6] was 1.9%. For the same compound, the “(10) Sustained pain relief from 2 to 24 hours postdose, Stratified Percentage Difference (Zavegepant − Placebo)” value [2, 6] was 8.0%, the “(11) Sustained pain freedom from 2 to 24 hours postdose, Stratified Percentage Difference (Zavegepant − Placebo)” value [2, 6] was 5.3% and the “(12) Sustained pain relief from 2 to 48 hours postdose, Stratified Percentage Difference (Zavegepant − Placebo)” value [2, 6] was 7.4%. The “(13) Sustained pain freedom from 2 to 48 hours postdose, Stratified Percentage Difference (Zavegepant − Placebo)” value [2, 6] was 5.5%, the “(2) Return to normal function at 2 hours posidose, Stratified Percentage Difference (Zavegepant − Placebo)” value [2, 7] was 4.3% and the “(7) Return to normal function at 60 minutes postdose, Stratified Percentage Difference (Zavegepant − Placebo)” value [2, 7] was 5.5%. For the same compound, the “(9) Return to normal function at 30 minutes postdose, Stratified Percentage Difference (Zavegepant − Placebo)” value [2, 7] was 3.4%, the “(14) Nausca freedom at 2 hours postdose, Stratified Percentage Difference (Zavegepant − Placebo)” value ([2]; Zavegepant 5 mg Group vs placebo, CMH weighting, subjects with symptom present at onset) was 1.8% and the “(4) Photophobia freedom at 2 hours postdose, n/N (%)” value [2, 8] was 118/337 (35.0) %. For the same compound, the “(6) Pain relief at 60 minutes postdose, n/N (%)” value [2, 8] was 182/387 (47.0) %, the “(9) Return to normal function at 30 minutes postdose, n/N (%)” value (“(9) Return to normal function … (%)” for short) ([2]; Zavegepant 5 mg Group, intranasal single dose) was 32/363 (8.8) % and the “(1) Pain relief at 2 hours postdose, Stratified Percentage Difference (Zavegepant − Placebo)” value [2, 9] was 7.1%. For the same compound, the “(3) Rescue medication use within 24 hours postdose, Stratified Percentage Difference (Zavegepant − Placebo)” value [2, 9] was −1.1%, the “(4) Photophobia freedom at 2 hours postdose, Stratified Percentage Difference (Zavegepant − Placebo)” value [2, 9] was 5.1% and the “(6) Pain relief at 60 minutes postdose, Stratified Percentage Difference (Zavegepant − Placebo)” value [2, 9] was 4.2%. For the same compound, the “(8) Pain relief at 30 minutes postdose, Stratified Percentage Difference (Zavegepant − Placebo)” value [2, 9] was 5.3%, the “(10) Sustained pain relief from 2 to 24 hours postdose, Stratified Percentage Difference (Zavegepant − Placebo)” value [2, 9] was 6.8% and the “(11) Sustained pain freedom from 2 to 24 hours postdose, Stratified Percentage Difference (Zavegepant − Placebo)” value [2, 9] was 6.1%. The “(12) Sustained pain relief from 2 to 48 hours postdose, Stratified Percentage Difference (Zavegepant − Placebo)” value [2, 9] was 7.0%, the “(13) Sustained pain freedom from 2 to 48 hours postdose, Stratified Percentage Difference (Zavegepant − Placebo)” value [2, 9] was 6.3% and the “(2) Return to normal function at 2 hours posidose, Stratified Percentage Difference (Zavegepant − Placebo)” value [2, 10] was 7.1%. The “(7) Return to normal function at 60 minutes postdose, Stratified Percentage Difference (Zavegepant − Placebo)” value [2, 10] was 1.8%, the “(9) Return to normal function at 30 minutes postdose, Stratified Percentage Difference (Zavegepant − Placebo)” value [2, 10] was 2.1% and the “(15) Pain relapse from 2 to 48 hours postdose, Stratified Percentage Difference (Zavegepant − Placebo)” value ([2]; Zavegepant 10 mg Group vs placebo, CMH weighting, subjects with pain freedom at 2 hours postdose) was −17.0%. The “(14) Nausca freedom at 2 hours postdose, Stratified Percentage Difference (Zavegepant − Placebo)” value ([2]; Zavegepant 10 mg Group vs placebo, CMH weighting, subjects with symptom present at onset) was 2.9%, the “(3) Rescue medication use within 24 hours postdose, n/N (%)” value [2, 11] was 101/388 (26.0) % and the “(6) Pain relief at 60 minutes postdose, n/N (%)” value [2, 11] was 180/391 (46.0) %. The “(9) Return to normal function … (%)” value ([2]; Zavegepant 10 mg Group, intranasal single dose) was 27/354 (7.6) %, the “(15) Pain relapse from 2 to 48 hours postdose, n/N (%)” value ([2]; Zavegepant 10 mg Group, intranasal single dose, mITT subjects with pain freedom at 2 hours postdose) was 29/88 (33.0) % and the “(1) Pain relief at 2 hours postdose, Stratified Percentage Difference (Zavegepant − Placebo)” value [2, 12] was 7.5%. The “(3) Rescue medication use within 24 hours postdose, Stratified Percentage Difference (Zavegepant − Placebo)” value [2, 12] was −7.1%, the “(4) Photophobia freedom at 2 hours postdose, Stratified Percentage Difference (Zavegepant − Placebo)” value [2, 12] was 7.4% and the “(6) Pain relief at 60 minutes postdose, Stratified Percentage Difference (Zavegepant − Placebo)” value [2, 12] was 7.8%. For the same compound, the “(8) Pain relief at 30 minutes postdose, Stratified Percentage Difference (Zavegepant − Placebo)” value [2, 12] was 1.9%, the “(10) Sustained pain relief from 2 to 24 hours postdose, Stratified Percentage Difference (Zavegepant − Placebo)” value [2, 12] was 8.9% and the “(11) Sustained pain freedom from 2 to 24 hours postdose, Stratified Percentage Difference (Zavegepant − Placebo)” value [2, 12] was 6.7%. The “(12) Sustained pain relief from 2 to 48 hours postdose, Stratified Percentage Difference (Zavegepant − Placebo)” value [2, 12] was 6.2%, the “(13) Sustained pain freedom from 2 to 48 hours postdose, Stratified Percentage Difference (Zavegepant − Placebo)” value [2, 12] was 5.7% and the “(2) Return to normal function at 2 hours posidose, Stratified Percentage Difference (Zavegepant − Placebo)” value [2, 13] was 7.3%. For the same compound, the “(7) Return to normal function at 60 minutes postdose, Stratified Percentage Difference (Zavegepant − Placebo)” value [2, 13] was 1.7%, the “(9) Return to normal function at 30 minutes postdose, Stratified Percentage Difference (Zavegepant − Placebo)” value [2, 13] was 4.5% and the “(5) Phonophobia freedom at 2 hours postdose, Stratified Percentage Difference (Zavegepant − Placebo)” value [2, 14] was 9.3%. The “(14) Nausca freedom at 2 hours postdose, Stratified Percentage Difference (Zavegepant − Placebo)” value [2, 14] was 3.7%, the “(9) Return to normal function … (%)” value ([2]; Zavegepant 20 mg Group, intranasal single dose) was 37/372 (9.9) % and the “secondary endpoints demonstrating early activity versus placebo” value ([2]; nominal p<0.05) was “superior to placebo on multiple secondary endpoints”. The “durability of benefits (sustained pain freedom and pain relief 2 to 24 and 2 to 48 hours)” value ([2]; nominal p<0.05, 5, 10 and 20 mg (pain relief 2 to 48 h: 5 and 10 mg)) was “durable and sustained without rescue medication out to 48 hours”, the “pKa (second value)” value [3] was 8.8 and the pH-solubility profile ([4]; at lower pH) was > 300 mg/mL. For the same compound, the pH-solubility profile ([4]; pH = 8.2) was 105 mg/mL, the “ALT or AST > 3x ULN (subjects)” value ([5]; 5 mg (N = 388)) was 0 and the “Bilirubin > 2x ULN (subjects)” value ([5]; 5 mg (N = 388)) was 0. For the same compound, the “ALT or AST > 3x ULN (subjects)” value ([5]; 10 mg (N = 394)) was 0, the “Bilirubin > 2x ULN (subjects)” value ([5]; 10 mg (N = 394)) was 0 and the “ALT or AST > 3x ULN (subjects)” value ([5]; 20 mg (N = 403)) was 0. The “Bilirubin > 2x ULN (subjects)” value ([5]; 20 mg (N = 403)) was 0, the “ALT or AST > 3x ULN (subjects)” value ([5]; All zavegepant (N = 1185)) was 0 and the “Bilirubin > 2x ULN (subjects)” value ([5]; All zavegepant (N = 1185)) was 0. The “hepatotoxicity signal (AST or ALT>3× ULN, total bilirubin>2× ULN)” value ([5]; any treatment arm) was “no signal of hepatoxicity”, the tolerability and safety ([5]; intranasal, single dose trial) was “well tolerated and safe” and the “AEs mild in intensity” value ([5]; single dose trial) was > 80%.
